The conditions of data set [1]: hamster, in vivo, sc.
For data set [2], the system named is H3N2 (rgA/Victoria/3/75) WT. The settings on record: cited from earlier work.
For data set [3], the system named is H1N1 (rgA/WSN/33) WT. As to conditions: cited from earlier work.
In data set [4] the test system is H1N1pdm09.WT. As to conditions: mouse, in vivo.
For data set [5], the system named is H1N1pdm09 (A/Osaka/129/2009) WT. As to the kind of experiment: microbe, parasite or virus in culture. In kind it is cell-based. The settings on record: Influenza A virus, read-out: EC50 Mean.
The conditions of data set [6]: BALB/c, mouse, in vivo; for C24 (plasma concentration at 24 h): sc.
Data set [7] deals with H3N2 (rgA/Victoria/3/75) WT. As to conditions: cited from earlier work. This is another data set of the same source.
In data set [8] the test system is H1N1 (rgA/WSN/33) WT. As to conditions: cited from earlier work. The source holds these as a separate data set.

Read-outs that look alike come from different tables or passages of the source.

Broadly, the EC50 is the midpoint of the concentration-response curve. For `O=C1c2c(O)c(=O)ccn2N([C@@H]2c3ccccc3SCc3c2ccc(F)c3F)[C@@H]2COCCN12` [baloxavir acid], the “C24 (plasma concentration at 24 h)” value in data set [1] (10 mg/kg) is on record as 17.3 ± 3.3 ng/mL; in data set [1] (30 mg/kg), 45.7 ± 19.7 ng/mL; in data set [6] (20 mg/kg) it was 47.4 ± 4.9 ng/mL; in data set [6] (30 mg/kg), 70.8 ± 13.9 ng/mL. Further, the concentration giving a half-maximal response (EC50) is 1130 pM in data set [2], 420 pM in data set [3] and 610 pM in data set [5]. Further, the Lung virus titer entry in data set [4] is listed as “almost to the LLOQ”. Moreover, the “C24 of a simulated dose” value in data set [6] was 78.3 ng/mL.
The IC50 is the concentration that inhibits the measured activity by half. Take `CCC(CC)O[C@@H]1C=C(C(=O)O)C[C@H](N)[C@H]1NC(C)=O` [oseltamivir acid]: the values for the 50% inhibitory concentration (IC50) in data set [7] and in data set [8] were 130 pM and 800 pM, respectively.
As to `CCOC(=O)C1=C[C@@H](OC(CC)CC)[C@H](NC(C)=O)[C@@H](N)C1` [oseltamivir phosphate], in data set [4], the “Lung virus titers vs vehicle” value is listed as “statistically lower compared with vehicle”.
